The source made the active and inactive calls. The calls are words filed in the database; no cut-off is given here.
Columns and labels:
[1] = molecular target: Protein kinase C alpha type (Homo sapiens) (UniProt P17252); experiment: PRKCA Invitrogen Lab (UK) kinase screen (BI); conditions: Compound concentration 1.0 uM
[2] = molecular target: Proto-oncogene tyrosine-protein kinase Src (Homo sapiens) (UniProt P12931); experiment: SRC Invitrogen Lab (UK) kinase screen (BI); conditions: Compound concentration 1.0 uM
[3] = molecular target: 5-hydroxytryptamine receptor 1B (Homo sapiens) (UniProt P28222); conditions: Compound concentration 10.0 uM
Chain of 5-hydroxytryptamine receptor 1B (Homo sapiens) (P28222 whole entry): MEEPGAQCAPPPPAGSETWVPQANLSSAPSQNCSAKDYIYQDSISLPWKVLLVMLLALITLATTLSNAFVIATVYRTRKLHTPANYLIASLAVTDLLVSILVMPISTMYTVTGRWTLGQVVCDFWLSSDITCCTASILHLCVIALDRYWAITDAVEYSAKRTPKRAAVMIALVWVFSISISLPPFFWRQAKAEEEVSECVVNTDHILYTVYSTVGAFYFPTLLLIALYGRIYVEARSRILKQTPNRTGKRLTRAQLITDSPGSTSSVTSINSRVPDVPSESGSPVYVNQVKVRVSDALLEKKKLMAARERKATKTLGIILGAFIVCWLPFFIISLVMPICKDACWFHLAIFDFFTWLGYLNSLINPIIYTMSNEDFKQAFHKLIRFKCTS

[4] = molecular target: Muscarinic acetylcholine receptor M2 (Homo sapiens) (UniProt P08172); conditions: Compound concentration 10.0 uM
[5] = molecular target: B-cell lymphoma 6 protein (Homo sapiens, UniProt P41182); experiment: SPR (BCL6), Ontario institute for cancer research
[6] = molecular target: MAO-A (amine oxidase [flavin-containing] A) (Rattus norvegicus, UniProt P21396); experiment: MAO-A_ANTAG Eurofins SafetyScreen44 (BI); design: scale not given: the % may be the effect or the level left; conditions: compound concentration 10 uM, read-out: % Ctrl
[7] = molecular target: 5-hydroxytryptamine receptor 1D (Homo sapiens) (UniProt P28221); conditions: Compound concentration 10.0 uM
[8] = molecular target: Sodium-dependent serotonin transporter (Homo sapiens) (UniProt P31645); experiment: SLC6A4/H Eurofins SafetyScreen44 (BI); conditions: filed as antagonist, Compound concentration 10.0 uM
[9] = molecular target: 5-hydroxytryptamine receptor 2B (Homo sapiens) (UniProt P41595); experiment: 5HT2B/H AG Eurofins SafetyScreen44 (BI); conditions: filed as agonist, Compound concentration 10.0 uM
[10] = molecular target: Alpha-2A adrenergic receptor (Homo sapiens) (UniProt P08913); conditions: Compound concentration 10.0 uM
Chain of Alpha-2A adrenergic receptor (Homo sapiens) (P08913 whole entry): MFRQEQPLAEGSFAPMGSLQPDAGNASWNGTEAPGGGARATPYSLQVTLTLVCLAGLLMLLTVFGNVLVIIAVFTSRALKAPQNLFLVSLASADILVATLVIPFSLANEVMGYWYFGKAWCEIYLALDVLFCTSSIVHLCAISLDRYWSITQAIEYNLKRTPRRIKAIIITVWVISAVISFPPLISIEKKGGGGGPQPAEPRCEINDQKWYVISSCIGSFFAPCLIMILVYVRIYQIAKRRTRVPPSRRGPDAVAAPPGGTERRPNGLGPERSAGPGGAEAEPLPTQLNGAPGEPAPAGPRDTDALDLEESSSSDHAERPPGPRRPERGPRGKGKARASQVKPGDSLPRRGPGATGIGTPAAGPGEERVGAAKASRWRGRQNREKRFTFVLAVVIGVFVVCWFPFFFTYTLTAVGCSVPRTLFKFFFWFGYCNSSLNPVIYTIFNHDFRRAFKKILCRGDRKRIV

[11] = molecular target: Cannabinoid receptor 1 (Homo sapiens) (UniProt P21554); experiment: CB1(HU)_AGON Eurofins SafetyScreen44 (BI); conditions: filed as agonist, Compound concentration 10.0 uM
[12] = molecular target: Alpha-2C adrenergic receptor (Homo sapiens) (UniProt P18825); conditions: Compound concentration 10.0 uM
Chain of Alpha-2C adrenergic receptor (Homo sapiens) (P18825 whole entry): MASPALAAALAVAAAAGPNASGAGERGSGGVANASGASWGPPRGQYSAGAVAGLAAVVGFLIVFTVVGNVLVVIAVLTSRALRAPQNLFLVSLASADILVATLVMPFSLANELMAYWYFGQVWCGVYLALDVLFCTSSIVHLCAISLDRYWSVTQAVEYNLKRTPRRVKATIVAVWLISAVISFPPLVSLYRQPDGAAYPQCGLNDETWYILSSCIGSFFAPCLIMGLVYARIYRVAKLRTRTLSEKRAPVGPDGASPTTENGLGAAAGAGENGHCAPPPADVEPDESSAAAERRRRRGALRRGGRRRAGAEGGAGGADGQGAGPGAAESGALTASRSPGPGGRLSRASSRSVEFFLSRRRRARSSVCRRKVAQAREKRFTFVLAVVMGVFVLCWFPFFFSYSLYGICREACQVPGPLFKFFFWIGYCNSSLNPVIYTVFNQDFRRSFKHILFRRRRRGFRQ

[13] = molecular target: Delta-type opioid receptor (Homo sapiens) (UniProt P41143); conditions: Compound concentration 10.0 uM
Chain of Delta-type opioid receptor (Homo sapiens) (P41143 whole entry): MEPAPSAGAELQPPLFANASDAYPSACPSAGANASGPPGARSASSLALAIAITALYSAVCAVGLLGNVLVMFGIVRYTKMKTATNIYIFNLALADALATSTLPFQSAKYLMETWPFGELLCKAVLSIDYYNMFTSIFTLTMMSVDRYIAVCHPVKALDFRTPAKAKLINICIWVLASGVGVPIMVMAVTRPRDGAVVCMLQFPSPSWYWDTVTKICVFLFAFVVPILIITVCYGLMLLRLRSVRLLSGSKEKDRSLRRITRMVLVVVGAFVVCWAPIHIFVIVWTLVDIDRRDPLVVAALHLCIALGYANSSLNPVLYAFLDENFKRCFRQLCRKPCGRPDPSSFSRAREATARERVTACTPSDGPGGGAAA

[14] = molecular target: 5-hydroxytryptamine receptor 1B (Homo sapiens) (UniProt P28222); experiment: 5HT1B(H) Eurofins SafetyScreen44 (BI); conditions: filed as antagonist, Compound concentration 10.0 uM
[15] = molecular target: Serine/threonine-protein kinase PLK1 (Homo sapiens) (UniProt P53350); experiment: PLK1 Invitrogen Lab (UK) kinase screen (BI); conditions: Compound concentration 1.0 uM
[16] = molecular target: Epidermal growth factor receptor (Homo sapiens) (UniProt P00533); experiment: EGFR Invitrogen Lab (UK) kinase screen (BI); conditions: Compound concentration 1.0 uM
[17] = molecular target: Ribosomal protein S6 kinase beta-1 (Homo sapiens) (UniProt P23443); experiment: RPS6KB1 Invitrogen Lab (UK) kinase screen (BI); conditions: Compound concentration 1.0 uM
[18] = molecular target: Zinc finger and BTB domain-containing protein 32 (Homo sapiens, UniProt Q9Y2Y4); experiment: SPR (ZBTB32), Ontario institute for cancer research
[19] = molecular target: D(3) dopamine receptor (Homo sapiens) (UniProt P35462); conditions: Compound concentration 10.0 uM
Chain of D(3) dopamine receptor (Homo sapiens) (P35462 whole entry): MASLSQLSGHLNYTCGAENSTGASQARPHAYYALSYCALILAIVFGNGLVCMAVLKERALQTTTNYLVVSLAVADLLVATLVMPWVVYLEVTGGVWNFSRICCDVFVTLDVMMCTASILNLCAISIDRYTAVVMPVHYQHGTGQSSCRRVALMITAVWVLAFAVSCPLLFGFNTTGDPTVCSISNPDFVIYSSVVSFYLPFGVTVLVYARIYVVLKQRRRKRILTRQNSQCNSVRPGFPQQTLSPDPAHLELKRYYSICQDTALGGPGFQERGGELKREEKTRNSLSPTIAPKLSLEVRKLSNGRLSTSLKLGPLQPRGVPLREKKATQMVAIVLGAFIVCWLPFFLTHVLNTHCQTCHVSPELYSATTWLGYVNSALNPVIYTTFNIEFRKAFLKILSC

[20] = molecular target: 5-hydroxytryptamine receptor 2A (Homo sapiens) (UniProt P28223); experiment: 5HT2AH_AGON Eurofins SafetyScreen44 (BI); conditions: filed as agonist, Compound concentration 10.0 uM
[21] = molecular target: Mitogen-activated protein kinase 1 (Homo sapiens) (UniProt P28482); experiment: MAPK1 Invitrogen Lab (UK) kinase screen (BI); conditions: Compound concentration 1.0 uM
[22] = molecular target: AMP-activated protein kinase (AMPK) alpha-1/beta-1/gamma-1 (Homo sapiens) (UniProt P54619+Q9Y478+Q13131); experiment: AMPK A1B1G1 Invitrogen Lab (UK) kinase screen (BI); assay type: protein-complex assay; conditions: Compound concentration 1.0 uM
[23] = molecular target: Kappa-type opioid receptor (Homo sapiens) (UniProt P41145); conditions: Compound concentration 10.0 uM
Chain of Kappa-type opioid receptor (Homo sapiens) (P41145 whole entry): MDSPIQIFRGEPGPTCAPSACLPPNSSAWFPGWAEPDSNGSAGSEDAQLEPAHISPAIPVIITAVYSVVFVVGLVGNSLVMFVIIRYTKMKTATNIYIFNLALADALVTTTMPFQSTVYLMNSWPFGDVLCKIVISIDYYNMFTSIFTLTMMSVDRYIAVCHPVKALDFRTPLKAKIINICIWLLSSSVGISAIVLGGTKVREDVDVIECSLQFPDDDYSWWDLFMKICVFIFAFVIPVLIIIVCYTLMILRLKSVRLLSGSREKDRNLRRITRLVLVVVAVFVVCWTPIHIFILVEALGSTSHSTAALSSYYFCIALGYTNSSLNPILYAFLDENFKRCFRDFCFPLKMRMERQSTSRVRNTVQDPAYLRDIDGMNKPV

[24] = molecular target: Sigma non-opioid intracellular receptor 1 (Homo sapiens) (UniProt Q99720); conditions: Compound concentration 10.0 uM
Chain of Sigma non-opioid intracellular receptor 1 (Homo sapiens) (Q99720 whole entry): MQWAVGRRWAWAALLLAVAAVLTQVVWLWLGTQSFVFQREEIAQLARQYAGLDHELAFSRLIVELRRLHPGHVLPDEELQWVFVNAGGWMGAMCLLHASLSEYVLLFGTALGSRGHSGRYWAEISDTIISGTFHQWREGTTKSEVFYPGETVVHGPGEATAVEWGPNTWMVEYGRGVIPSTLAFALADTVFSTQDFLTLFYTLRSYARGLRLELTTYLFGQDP

[25] = molecular target: Beta-2 adrenergic receptor (Homo sapiens) (UniProt P07550); conditions: Compound concentration 10.0 uM
Chain of Beta-2 adrenergic receptor (Homo sapiens) (P07550 whole entry, looked up): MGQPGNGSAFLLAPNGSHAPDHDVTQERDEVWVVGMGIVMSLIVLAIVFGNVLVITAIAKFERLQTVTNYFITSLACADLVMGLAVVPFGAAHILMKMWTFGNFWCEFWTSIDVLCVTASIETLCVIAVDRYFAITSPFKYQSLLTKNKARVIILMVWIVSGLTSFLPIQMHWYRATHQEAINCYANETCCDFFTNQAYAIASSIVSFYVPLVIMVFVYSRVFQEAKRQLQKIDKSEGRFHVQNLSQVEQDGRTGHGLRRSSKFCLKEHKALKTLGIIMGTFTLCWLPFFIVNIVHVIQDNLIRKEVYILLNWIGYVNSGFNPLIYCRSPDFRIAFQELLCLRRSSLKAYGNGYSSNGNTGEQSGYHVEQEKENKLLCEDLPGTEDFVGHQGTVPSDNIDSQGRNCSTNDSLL

[26] = molecular target: Angiotensin-converting enzyme (Homo sapiens) (UniProt P12821); experiment: ACE(HU_AMTCH400) Eurofins SafetyScreen44 (BI); conditions: Compound concentration 10.0 uM
[27] = molecular target: Alpha-2B adrenergic receptor (Homo sapiens) (UniProt P18089); conditions: Compound concentration 10.0 uM
Chain of Alpha-2B adrenergic receptor (Homo sapiens) (P18089 whole entry): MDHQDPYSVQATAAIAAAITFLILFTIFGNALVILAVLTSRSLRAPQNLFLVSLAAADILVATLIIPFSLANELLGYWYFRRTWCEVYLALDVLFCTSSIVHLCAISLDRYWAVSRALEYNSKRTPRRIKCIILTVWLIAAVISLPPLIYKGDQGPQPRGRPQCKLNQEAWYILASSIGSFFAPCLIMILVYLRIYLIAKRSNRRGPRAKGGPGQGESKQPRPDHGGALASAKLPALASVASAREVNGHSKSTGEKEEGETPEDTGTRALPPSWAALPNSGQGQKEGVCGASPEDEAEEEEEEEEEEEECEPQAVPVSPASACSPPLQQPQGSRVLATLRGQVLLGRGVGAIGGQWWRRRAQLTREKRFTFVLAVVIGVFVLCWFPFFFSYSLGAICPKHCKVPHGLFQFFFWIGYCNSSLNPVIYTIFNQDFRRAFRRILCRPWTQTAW

[28] = molecular target: Beta-1 adrenergic receptor (Homo sapiens) (UniProt P08588); conditions: Compound concentration 10.0 uM
Chain of Beta-1 adrenergic receptor (Homo sapiens) (P08588 whole entry, looked up): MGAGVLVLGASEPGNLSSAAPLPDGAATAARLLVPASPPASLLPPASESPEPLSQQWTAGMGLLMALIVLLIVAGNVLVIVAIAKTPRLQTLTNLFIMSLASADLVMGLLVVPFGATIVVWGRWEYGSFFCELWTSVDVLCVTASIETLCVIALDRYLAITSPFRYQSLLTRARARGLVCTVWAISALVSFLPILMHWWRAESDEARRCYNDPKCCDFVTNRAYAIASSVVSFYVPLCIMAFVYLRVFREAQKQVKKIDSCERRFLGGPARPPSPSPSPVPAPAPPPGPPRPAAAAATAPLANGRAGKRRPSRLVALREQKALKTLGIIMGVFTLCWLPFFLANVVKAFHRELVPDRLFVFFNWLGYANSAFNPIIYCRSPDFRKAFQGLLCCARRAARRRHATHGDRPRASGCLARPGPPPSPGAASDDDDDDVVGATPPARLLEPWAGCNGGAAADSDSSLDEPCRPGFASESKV

[29] = molecular target: Muscarinic acetylcholine receptor M3 (Homo sapiens, UniProt P20309); experiment: M3/H Eurofins SafetyScreen44 (BI); conditions: Compound concentration 10.0 uM
[30] = molecular target: 3-phosphoinositide-dependent protein kinase 1 (Homo sapiens) (UniProt O15530); experiment: PDK1 Invitrogen Lab (UK) kinase screen (BI); conditions: Compound concentration 1.0 uM
[31] = molecular target: Beta-1 adrenergic receptor (Homo sapiens) (UniProt P08588); experiment: BETA1/HUM Eurofins SafetyScreen44 (BI); conditions: Compound concentration 10.0 uM
[32] = molecular target: Dual specificity mitogen-activated protein kinase kinase 2 (Homo sapiens) (UniProt P36507); experiment: MAP2K2 Invitrogen Lab (UK) kinase screen (BI); conditions: Compound concentration 1.0 uM
[33] = molecular target: D(1A) dopamine receptor (Homo sapiens) (UniProt P21728); experiment: D1/H Eurofins SafetyScreen44 (BI); conditions: filed as antagonist, Compound concentration 10.0 uM
[34] = molecular target: GABA-A receptor; anion channel (Rattus norvegicus) (UniProt O09028+P15431+P18506+P18508+P19969+P20236+P23574+P23576+P28471+P28473+P30191+P62813+P63079+P63138+Q91ZM7+Q9ES14); experiment: BZD/CENTR/R Eurofins SafetyScreen44 (BI); assay type: protein-complex assay; conditions: Compound concentration 10.0 uM
[35] = molecular target: Phosphatidylinositol 4,5-bisphosphate 3-kinase catalytic subunit gamma isoform (Homo sapiens) (UniProt P48736); experiment: PIK3CG Invitrogen Lab (UK) kinase screen (BI); conditions: Compound concentration 1.0 uM
[36] = molecular target: Histamine H2 receptor (Homo sapiens) (UniProt P25021); conditions: Compound concentration 10.0 uM
Chain of Histamine H2 receptor (Homo sapiens) (P25021 whole entry): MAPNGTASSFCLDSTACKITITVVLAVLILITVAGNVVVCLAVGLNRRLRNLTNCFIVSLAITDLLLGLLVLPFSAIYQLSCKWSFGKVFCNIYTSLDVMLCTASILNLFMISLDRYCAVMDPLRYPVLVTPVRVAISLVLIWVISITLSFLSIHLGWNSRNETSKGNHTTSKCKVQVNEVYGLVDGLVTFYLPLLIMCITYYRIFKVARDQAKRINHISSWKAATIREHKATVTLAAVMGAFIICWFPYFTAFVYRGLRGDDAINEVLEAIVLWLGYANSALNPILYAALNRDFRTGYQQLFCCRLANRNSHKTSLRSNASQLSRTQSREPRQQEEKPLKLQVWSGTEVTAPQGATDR

[37] = molecular target: Mu-type opioid receptor (Homo sapiens) (UniProt P35372); conditions: Compound concentration 10.0 uM
Chain of Mu-type opioid receptor (Homo sapiens) (P35372 whole entry): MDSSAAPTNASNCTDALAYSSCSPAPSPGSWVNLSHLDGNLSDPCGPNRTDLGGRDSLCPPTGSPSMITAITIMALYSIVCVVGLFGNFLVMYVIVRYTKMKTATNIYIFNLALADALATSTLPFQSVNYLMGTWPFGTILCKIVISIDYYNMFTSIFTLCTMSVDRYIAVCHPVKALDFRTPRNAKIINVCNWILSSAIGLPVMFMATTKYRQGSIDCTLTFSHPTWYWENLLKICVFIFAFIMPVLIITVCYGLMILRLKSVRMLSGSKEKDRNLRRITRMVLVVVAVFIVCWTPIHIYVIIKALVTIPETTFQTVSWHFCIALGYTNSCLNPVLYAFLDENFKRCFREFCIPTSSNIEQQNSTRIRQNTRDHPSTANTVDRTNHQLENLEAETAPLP

[38] = molecular target: Glutamate NMDA receptor (Rattus norvegicus) (UniProt P35439+Q00959+Q00960+Q00961+Q62645+Q8VHN2+Q9R1M7); experiment: NMDA/R Eurofins SafetyScreen44 (BI); assay type: protein-complex assay; conditions: Compound concentration 10.0 uM
[39] = molecular target: Mitogen-activated protein kinase 14 (Homo sapiens) (UniProt Q16539); experiment: MAPK14 Invitrogen Lab (UK) kinase screen (BI); conditions: Compound concentration 1.0 uM
[40] = molecular target: Zinc finger and BTB domain-containing protein 17 (Homo sapiens, UniProt Q13105); experiment: SPR (ZBTB17), Ontario institute for cancer research
[41] = molecular target: RAC-beta serine/threonine-protein kinase (Homo sapiens) (UniProt P31751); experiment: AKT2 Invitrogen Lab (UK) kinase screen (BI); conditions: Compound concentration 1.0 uM
[42] = molecular target: 5-hydroxytryptamine receptor 3A (Homo sapiens) (UniProt P46098); experiment: 5HT3/H Eurofins SafetyScreen44 (BI); conditions: Compound concentration 10.0 uM

Compound: CNC(=O)COc1cc2cc(Nc3nc(N4CCC(C(=O)N(C)C)CC4)ncc3Cl)cc(OC)c2n(C)c1=O
- residual activity [1]: 90%
- residual activity [2]: 88%
- inhibition [3]: 9.19%
- inhibition [4]: 19.5%
- Kd [5]: 2.57 nM (active)
- activity at 10 µM [6]: 103% (not active)
- inhibition [7]: 13.2%
- residual activity [8]: 105%
- residual activity [9]: 131%
- inhibition [10]: 15.1%
- residual activity [11]: 123%
- inhibition [12]: 3.4%
- inhibition [13]: 17.6%
- residual activity [14]: 124%
- residual activity [15]: 100%
- residual activity [16]: 100%
- residual activity [17]: 93%
- Kd [18]: No binding
- inhibition [19]: 14.6%
- residual activity [20]: 119%
- residual activity [21]: 98%
- residual activity [22]: 98%
- inhibition [23]: 15.4%
- inhibition [24]: 16.8%
- inhibition [25]: 1.38%
- residual activity [26]: 96%
- inhibition [27]: 20.7%
- inhibition [28]: -5.19%
- residual activity [29]: 88%
- residual activity [30]: 83%
- residual activity [31]: 100%
- residual activity [32]: 95%
- residual activity [33]: 100%
- residual activity [34]: 125%
- residual activity [35]: 98%
- inhibition [36]: 9.74%
- inhibition [37]: 17.4%
- residual activity [38]: 104%
- residual activity [39]: 88%
- Kd [40]: No binding
- residual activity [41]: 90%
- residual activity [42]: 95%

Reference: ChEMBL document CHEMBL5303764, “Data for DCP probe BI-3812” (2023)
